Calls of active or inactive are those of the source.
Key:
[1] = molecular target: Glucose-6-phosphate 1-dehydrogenase (Homo sapiens, UniProt P11413); test: inhibition of Homo sapiens G6PD, dose series – biochemical, fluorescence, selectivity assay for P. falciparum G6PD inhibitor project, dose response (AID 504792); assay type: functional
[2] = molecular target: T1, Heat shock factor protein 1 (Mus musculus, UniProt P38532); test: decrease of HSF1-responsive luciferase luminescence – cell-based, NIH3T3, dose retest, confirmation (AID 2382); assay type: functional;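 note: NIH3T3 fibroblasts with HSF1-driven luciferase reporter stressed by proteasome inhibitor MG132; luminescence from HSF1-driven luciferase expression after 8 hours of MG132 stress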
T1 sequence (P38532 whole entry): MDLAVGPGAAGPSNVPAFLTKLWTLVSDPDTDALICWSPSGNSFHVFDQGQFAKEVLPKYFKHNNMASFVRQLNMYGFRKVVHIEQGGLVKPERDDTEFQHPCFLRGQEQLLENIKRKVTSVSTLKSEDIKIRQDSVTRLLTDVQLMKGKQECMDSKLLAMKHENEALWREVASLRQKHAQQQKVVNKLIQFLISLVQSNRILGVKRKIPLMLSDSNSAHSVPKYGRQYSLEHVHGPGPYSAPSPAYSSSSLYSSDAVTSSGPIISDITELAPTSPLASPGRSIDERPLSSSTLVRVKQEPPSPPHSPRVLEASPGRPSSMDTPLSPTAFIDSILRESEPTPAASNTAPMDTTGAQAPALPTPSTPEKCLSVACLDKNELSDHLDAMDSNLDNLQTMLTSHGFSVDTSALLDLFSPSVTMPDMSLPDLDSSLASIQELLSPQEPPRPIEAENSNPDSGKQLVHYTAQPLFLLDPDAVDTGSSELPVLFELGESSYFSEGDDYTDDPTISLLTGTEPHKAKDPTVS

[3] = molecular target: T2, Ubiquitin-conjugating enzyme E2 N (Homo sapiens, UniProt P61088); assay type: functional;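 note: Dose-response confirmation in a TR-FRET assay detecting UBC13-driven polyubiquitin chain formation, inhibition measured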
T2 sequence (P61088 whole entry): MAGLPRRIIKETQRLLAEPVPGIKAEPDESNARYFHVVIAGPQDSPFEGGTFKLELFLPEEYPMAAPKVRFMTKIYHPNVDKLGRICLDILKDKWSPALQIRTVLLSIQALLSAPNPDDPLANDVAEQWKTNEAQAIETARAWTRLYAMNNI

[4] = molecular target: T3, Apoptotic protease-activating factor 1 (Homo sapiens, UniProt O14727); assay type: functional
T3 sequence (O14727 whole entry): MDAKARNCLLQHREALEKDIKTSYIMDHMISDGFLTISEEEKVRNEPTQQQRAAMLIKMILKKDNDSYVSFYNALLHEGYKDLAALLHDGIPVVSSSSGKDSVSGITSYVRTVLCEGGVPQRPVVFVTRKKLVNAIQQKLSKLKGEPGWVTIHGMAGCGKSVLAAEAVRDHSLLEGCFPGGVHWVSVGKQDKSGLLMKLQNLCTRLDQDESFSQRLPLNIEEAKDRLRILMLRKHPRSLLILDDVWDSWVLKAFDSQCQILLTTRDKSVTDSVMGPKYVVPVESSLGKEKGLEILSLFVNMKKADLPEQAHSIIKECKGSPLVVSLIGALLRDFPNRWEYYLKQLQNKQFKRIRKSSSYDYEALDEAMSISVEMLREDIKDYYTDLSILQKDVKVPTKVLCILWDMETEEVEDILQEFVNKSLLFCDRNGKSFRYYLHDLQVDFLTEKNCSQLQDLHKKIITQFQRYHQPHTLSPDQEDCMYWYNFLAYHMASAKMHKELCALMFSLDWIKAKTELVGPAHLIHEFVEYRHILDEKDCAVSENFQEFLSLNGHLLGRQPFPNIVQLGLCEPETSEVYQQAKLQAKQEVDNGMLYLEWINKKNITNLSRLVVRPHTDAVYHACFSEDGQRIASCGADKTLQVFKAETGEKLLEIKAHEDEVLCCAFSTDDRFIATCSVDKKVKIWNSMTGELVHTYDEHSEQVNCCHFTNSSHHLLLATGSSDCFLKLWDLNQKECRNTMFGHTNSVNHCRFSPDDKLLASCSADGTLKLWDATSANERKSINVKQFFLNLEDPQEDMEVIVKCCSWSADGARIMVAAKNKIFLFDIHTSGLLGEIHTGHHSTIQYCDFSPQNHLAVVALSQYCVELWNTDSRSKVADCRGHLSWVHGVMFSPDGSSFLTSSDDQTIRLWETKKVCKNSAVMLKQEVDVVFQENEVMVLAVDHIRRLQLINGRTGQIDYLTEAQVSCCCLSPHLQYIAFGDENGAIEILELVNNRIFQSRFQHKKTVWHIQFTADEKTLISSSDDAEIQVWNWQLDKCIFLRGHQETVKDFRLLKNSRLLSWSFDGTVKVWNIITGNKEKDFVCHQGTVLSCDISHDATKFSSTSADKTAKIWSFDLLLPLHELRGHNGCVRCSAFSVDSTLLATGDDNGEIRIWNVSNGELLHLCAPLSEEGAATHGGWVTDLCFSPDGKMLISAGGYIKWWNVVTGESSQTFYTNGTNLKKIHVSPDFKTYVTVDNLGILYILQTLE

Vero [5] = test: cells; assay type: functional; settings: Chlorocebus sabaeus
Vero [6] = test: cells; assay type: functional, cell-based; settings: Chlorocebus sabaeus
Cytochrome P450 2C9 = Cytochrome P450 2C9 (Homo sapiens, UniProt P11712)
[7] = molecular target: T4, Replicative DNA helicase DnaB (Mycobacterium tuberculosis, UniProt P9WMR3); test: DnaB intein splicing inhibitors, dose response, biochemical, cell-free fluorescence (AID 449749); assay type: functional
T4 sequence (P9WMR3 whole entry): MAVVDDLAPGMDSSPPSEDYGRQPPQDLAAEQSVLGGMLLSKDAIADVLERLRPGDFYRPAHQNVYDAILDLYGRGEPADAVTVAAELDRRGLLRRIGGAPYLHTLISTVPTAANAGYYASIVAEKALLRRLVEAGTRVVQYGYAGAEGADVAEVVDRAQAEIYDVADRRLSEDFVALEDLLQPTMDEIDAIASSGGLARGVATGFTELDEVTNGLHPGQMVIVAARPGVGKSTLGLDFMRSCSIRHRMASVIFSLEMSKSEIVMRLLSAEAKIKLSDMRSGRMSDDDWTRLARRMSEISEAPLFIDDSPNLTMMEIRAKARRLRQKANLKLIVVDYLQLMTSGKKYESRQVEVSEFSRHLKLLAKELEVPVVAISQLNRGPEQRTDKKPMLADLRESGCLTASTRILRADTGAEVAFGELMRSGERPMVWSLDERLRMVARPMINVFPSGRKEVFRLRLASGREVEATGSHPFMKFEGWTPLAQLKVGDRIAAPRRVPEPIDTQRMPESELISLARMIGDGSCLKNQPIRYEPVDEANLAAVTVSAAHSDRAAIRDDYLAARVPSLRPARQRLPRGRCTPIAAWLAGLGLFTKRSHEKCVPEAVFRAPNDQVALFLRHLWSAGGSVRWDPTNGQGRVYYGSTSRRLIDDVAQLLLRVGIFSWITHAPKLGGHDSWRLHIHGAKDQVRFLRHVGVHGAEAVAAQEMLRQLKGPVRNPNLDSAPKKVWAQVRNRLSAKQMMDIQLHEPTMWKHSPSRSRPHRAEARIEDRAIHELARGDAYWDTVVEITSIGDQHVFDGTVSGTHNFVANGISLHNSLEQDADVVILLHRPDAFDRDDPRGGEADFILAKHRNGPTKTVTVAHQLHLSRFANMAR

[8] = molecular target: T5, Corticotropin-releasing factor receptor 2/Corticotropin-releasing factor-binding protein (Homo sapiens, UniProt P24387+Q13324); test: activators of CRF receptor 2 with binding protein – uHTS hits, confirmation (AID 602473); assay type: functional; settings: read-out: EC50_Mean
T5 sequence (Q13324 whole entry): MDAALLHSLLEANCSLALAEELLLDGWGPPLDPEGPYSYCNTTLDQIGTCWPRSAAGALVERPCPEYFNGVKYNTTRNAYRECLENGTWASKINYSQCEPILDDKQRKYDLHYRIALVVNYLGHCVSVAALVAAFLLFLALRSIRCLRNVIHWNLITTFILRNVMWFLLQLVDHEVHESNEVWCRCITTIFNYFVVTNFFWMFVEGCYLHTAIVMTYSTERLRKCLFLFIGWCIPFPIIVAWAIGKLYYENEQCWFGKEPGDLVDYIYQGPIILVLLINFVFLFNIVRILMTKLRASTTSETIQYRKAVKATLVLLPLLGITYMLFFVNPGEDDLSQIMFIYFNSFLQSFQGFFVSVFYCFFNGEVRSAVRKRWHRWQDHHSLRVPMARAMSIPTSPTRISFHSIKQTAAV
T5 sequence (P24387 whole entry): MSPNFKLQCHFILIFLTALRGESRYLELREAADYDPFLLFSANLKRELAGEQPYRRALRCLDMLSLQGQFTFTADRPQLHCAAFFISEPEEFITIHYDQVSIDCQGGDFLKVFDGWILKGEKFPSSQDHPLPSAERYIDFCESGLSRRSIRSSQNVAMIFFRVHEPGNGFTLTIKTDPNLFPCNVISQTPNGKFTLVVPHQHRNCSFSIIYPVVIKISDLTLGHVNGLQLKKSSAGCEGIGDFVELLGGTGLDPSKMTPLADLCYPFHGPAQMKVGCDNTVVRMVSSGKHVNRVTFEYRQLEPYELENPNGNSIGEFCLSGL

Protein RecA = molecular target: T6, Protein RecA (Mycobacterium tuberculosis, UniProt P9WHJ3); test: Fluorescence Cell-Free Homogeneous Dose Retest to Identify Inhibitors of RecA-Intein Splicing Activity. [Related pubchem assays (depositor defined):AID2097, AID2223, AID489010, AID492950]; assay type: functional
T6 sequence (P9WHJ3 whole entry): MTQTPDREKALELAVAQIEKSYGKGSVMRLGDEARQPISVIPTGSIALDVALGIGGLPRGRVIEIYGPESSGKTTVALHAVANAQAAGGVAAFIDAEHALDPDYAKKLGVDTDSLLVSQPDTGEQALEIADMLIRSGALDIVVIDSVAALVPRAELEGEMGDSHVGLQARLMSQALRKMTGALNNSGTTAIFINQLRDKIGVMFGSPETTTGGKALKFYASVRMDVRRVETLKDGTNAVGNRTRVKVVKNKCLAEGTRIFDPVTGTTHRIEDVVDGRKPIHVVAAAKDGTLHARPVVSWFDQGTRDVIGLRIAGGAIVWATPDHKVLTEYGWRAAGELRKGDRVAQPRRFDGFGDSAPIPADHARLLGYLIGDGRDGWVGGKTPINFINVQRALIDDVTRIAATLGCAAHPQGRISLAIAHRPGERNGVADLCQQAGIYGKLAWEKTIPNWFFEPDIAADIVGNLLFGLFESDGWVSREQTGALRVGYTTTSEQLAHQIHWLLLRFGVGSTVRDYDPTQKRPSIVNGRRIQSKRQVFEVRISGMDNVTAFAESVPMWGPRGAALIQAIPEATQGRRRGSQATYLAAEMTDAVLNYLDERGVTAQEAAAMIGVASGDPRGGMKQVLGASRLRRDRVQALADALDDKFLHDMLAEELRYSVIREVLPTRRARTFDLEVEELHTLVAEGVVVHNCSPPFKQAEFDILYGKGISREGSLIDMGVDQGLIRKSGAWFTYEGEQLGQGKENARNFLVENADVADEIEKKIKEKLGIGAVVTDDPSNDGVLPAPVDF

[9] = microbe, parasite or virus in culture; assay type: functional; settings: Mycobacterium tuberculosis
HEK293 [10] = test: cells; settings: Homo sapiens
HEK293 [11] = test: cells; settings: Homo sapiens; remark: listed apart in the source
[12] = molecular target: T5, Corticotropin-releasing factor receptor 2/Corticotropin-releasing factor-binding protein; test: Dose Response confirmation of uHTS hits for small molecule antagonists of the CRF-binding protein and CRF-R2 receptor complex.; assay type: functional; settings: read-out: IC50_Mean
[13] = HGIII-sPLA2 enzyme inhibition potency – biochemical, QFRET, IC50, dose response (AID 743457);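 note: green fluorescence rise as the enzyme cleaves BODIPY PC-A2 in liposomes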
[14] = molecular target: SWI/SNF-related matrix-associated actin-dependent regulator of chromatin subfamily A member 2 (Homo sapiens, UniProt P51531); test: Luminescence-based cell-based high throughput dose response assay to identify activators of the function of SWI/SNF related, matrix associated, actin dependent regulator of chromatin, subfamily a, member 2 (SMARCA2, BRM).; assay type: functional
[15] = Counterscreen for activators of the function of SWI/SNF related, matrix associated, actin dependent regulator of chromatin, subfamily a, member 2 (SMARCA2, BRM): Luminescence-based cell-based high throughput dose response assay to identify non-selective compounds using the VP16 reporter assay.; assay type: functional
[16] = molecular target: Heat shock protein HSP 90-alpha (Homo sapiens, UniProt P07900); assay type: functional, organism-based

SWI/SNF-related matrix-associated actin-dependent regulator of chromatin subfamily A member 2, sequence (P51531 whole entry): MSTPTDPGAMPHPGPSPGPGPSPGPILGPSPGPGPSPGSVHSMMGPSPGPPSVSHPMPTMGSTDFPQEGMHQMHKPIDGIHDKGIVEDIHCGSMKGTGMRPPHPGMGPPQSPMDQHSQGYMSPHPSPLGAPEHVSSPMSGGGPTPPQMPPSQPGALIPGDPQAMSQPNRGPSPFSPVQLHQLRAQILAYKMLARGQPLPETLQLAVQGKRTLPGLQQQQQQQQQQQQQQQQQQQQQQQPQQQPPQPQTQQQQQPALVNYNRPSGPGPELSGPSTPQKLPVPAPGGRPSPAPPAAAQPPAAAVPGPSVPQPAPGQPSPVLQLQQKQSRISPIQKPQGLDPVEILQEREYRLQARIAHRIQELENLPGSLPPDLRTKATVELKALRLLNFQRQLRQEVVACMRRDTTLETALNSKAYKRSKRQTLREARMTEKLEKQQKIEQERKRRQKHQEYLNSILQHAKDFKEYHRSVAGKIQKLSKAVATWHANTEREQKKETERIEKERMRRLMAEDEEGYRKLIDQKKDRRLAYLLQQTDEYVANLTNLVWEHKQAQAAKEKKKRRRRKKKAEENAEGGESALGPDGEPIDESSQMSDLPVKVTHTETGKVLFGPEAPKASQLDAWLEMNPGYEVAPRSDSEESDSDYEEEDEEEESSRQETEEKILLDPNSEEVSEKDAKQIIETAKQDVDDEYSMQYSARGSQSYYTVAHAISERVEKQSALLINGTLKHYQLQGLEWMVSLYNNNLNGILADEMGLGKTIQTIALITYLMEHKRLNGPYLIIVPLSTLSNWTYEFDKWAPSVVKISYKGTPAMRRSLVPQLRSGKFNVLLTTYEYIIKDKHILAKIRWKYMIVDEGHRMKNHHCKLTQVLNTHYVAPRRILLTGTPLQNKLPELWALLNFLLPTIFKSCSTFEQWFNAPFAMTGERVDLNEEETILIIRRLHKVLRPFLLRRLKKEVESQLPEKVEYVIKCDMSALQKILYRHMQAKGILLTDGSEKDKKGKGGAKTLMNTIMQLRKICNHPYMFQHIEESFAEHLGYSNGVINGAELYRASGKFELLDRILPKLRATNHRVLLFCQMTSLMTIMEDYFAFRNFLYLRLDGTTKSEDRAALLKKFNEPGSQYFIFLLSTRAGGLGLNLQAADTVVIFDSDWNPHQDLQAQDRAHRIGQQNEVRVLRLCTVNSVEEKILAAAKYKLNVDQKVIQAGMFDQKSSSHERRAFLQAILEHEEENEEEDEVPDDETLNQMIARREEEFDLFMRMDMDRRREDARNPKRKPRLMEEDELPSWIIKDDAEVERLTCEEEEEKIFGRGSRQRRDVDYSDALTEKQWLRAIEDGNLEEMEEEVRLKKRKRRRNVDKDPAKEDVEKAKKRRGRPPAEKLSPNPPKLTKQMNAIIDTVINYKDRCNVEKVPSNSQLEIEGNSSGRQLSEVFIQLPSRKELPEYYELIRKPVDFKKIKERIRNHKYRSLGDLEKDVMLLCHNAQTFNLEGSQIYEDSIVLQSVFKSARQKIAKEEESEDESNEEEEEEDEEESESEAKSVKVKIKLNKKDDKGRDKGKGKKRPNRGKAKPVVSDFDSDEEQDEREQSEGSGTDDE
Glucose-6-phosphate 1-dehydrogenase, sequence (P11413 whole entry): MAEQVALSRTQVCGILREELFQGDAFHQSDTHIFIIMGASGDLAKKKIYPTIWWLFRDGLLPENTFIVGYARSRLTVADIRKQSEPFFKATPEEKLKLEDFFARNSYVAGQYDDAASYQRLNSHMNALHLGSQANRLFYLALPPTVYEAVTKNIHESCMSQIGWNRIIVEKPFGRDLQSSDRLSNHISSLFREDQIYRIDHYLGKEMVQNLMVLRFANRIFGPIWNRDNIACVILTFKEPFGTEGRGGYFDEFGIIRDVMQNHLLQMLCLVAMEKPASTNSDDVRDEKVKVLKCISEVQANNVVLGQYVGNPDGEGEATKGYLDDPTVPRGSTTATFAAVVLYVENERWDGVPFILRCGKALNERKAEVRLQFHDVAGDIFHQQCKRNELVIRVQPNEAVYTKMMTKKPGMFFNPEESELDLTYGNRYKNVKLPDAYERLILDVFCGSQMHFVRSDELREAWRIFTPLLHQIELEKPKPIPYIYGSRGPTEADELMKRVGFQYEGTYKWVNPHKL
Cytochrome P450 2C9, sequence (P11712 whole entry): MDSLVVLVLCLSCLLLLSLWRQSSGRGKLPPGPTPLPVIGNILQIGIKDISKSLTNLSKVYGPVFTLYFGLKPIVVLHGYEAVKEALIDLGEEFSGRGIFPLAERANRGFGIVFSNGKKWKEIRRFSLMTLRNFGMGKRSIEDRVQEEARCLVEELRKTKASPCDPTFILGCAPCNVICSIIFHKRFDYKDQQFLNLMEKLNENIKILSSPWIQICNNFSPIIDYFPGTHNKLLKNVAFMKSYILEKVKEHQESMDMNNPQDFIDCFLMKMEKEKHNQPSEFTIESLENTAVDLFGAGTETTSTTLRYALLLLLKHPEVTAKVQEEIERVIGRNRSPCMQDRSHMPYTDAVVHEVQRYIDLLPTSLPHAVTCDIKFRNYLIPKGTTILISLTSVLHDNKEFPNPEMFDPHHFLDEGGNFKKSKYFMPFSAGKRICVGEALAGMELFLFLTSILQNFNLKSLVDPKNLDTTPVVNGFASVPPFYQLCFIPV

Nc1c(C(=O)Nc2ccc(F)cc2)sc(=S)n1-c1ccccc1F
IC50 [1]: > 80 µM (inactive)

O=C(Nc1nnc(S(=O)(=O)N2CCCCCC2)s1)c1cccc(Br)c1
EC50 [2]: > 195 µM (not active)
IC50 [1]: 78.9 µM (inactive)

COc1ccc(C(CNC(=O)COc2c(C)cc(C)cc2C)N2CCOCC2)cc1 (stereo unspecified)
IC50 [3]: > 20 µM (inactive)
IC50 [4]: > 100 µM (inactive)

O=C(Oc1ccc2ccccc2c1Br)N1CCCCCC1
CC50 (Vero [5]): > 25 µM (active)
IC50 (Vero [6]): 4.26 µM (active)
AC50 (Cytochrome P450 2C9): 25.1 µM (inconclusive)

Cc1oc2c(c1C(=O)O)C(=O)c1ccccc1C2=O
IC50 [4]: 11.4 µM (active)

COC(=O)CN1C(c2ccc(Cl)cc2)=Nc2ccc(Cl)cc2C1c1ccccc1 (stereo unspecified)
AC50 [7]: 4.24 µM (active)
EC50 [8]: > 53 µM (inactive)
EC50 (Protein RecA): 55.9 µM (inconclusive)
CC50 [9]: > 40 µM (active)
EC50 (HEK293 [10]): > 59.6 µM (inactive)
EC50 (HEK293 [11]): > 59.6 µM (inactive)
IC50 [12]: > 47.1 µM (inactive)

Cc1ccc2nc(NNC(=O)c3ccc4c(c3)OCCO4)sc2c1
IC50 [13]: > 122 µM (inactive)

N#C/C(=C/c1cccs1)c1nc2ccccc2[nH]1
EC50 [14]: > 91.1 µM (inactive)
EC50 [15]: > 91.1 µM (inactive)

O=C1CCCCC1Nc1ccc2ccccc2c1 (stereo unspecified)
IC50 (Vero [6]): > 12.5 µM (active)

O=C(CCCc1ccccc1)NCc1ccccc1
EC50 [14]: > 91.3 µM (inactive)
EC50 [15]: > 91.3 µM (inactive)

O=C(Nc1nc(-c2cccc(Br)c2)cs1)Oc1ccccc1
EC50 [14]: > 91.2 µM (inactive)
EC50 [15]: > 91.2 µM (inactive)

CC(C)N1CCN(c2ccc(OC[C@H]3CO[C@](Cn4cncn4)(c4ccc(Cl)cc4Cl)O3)cc2)CC1 [TERCONAZOLE]
AC50 [16]: 1.41 µM (active)
CC50 (Vero [5]): 22.1 µM (active)

Reference: ChEMBL document CHEMBL1201862, “PubChem BioAssay data set” (2004)
